Experiments:
carbonic anhydrase [1] = test: Corning Epic binding of carbonic anhydrase to wells pre-coated with attachment peptides; conditions: carbonic anhydrase at 1 μM; 30 and 180 minute incubation
From the text: The selected candidate peptides were applied to the wells of a Corning Epic System 384-well microplate by linking the C-terminal cysteines of the peptides to surface amines of the Epic microplate wells via the maleimide and amine moieties, respectively, of a BMPH linker (Pierce). The immobilization of the peptides to the Epic microplate wells without carbonic anhydrase was first evaluated to identify any peptides binding poorly to the well surface, and to provide a basis for computing the maximum wavelength shift theoretically obtainable with optimal binding of the carbonic anhydrase to the peptides at a concentration sufficient to saturate. […] This could reflect inadequate binding to the surface due to poor solubility of the poorly binding peptides.
Carbonic anhydrase was applied in Epic microplate wells in which the selected peptides had been pre-applied to the well surface, in groups of four replicate wells and in carbonic anhydrase concentrations ranging from 31 nM to 1 μM. Observed wavelength shifts after 30 minute incubation of the indicated concentrations of carbonic anhydrase with peptides CA4, CA8, CA9, CA10, CA11, and CA12 are shown in FIG. 7(a).

carbonic anhydrase [2] = test: Corning Epic binding of dansylamide to carbonic anhydrase immobilized by attachment peptides; conditions: 1 μM dansylamide; six carbonic anhydrase concentrations, four replicates each; nearly all replicates
Procedure: Dansylamide, a known inhibitor of carbonic anhydrase, was applied to a range of concentrations (31 nM to 1 μM) of carbonic anhydrase immobilized in Epic wells by peptides CA4, CA8, CA9, CA10, CA11, and CA12. […] Wavelength shifts on the order of approximately 10 to 20 pm were observed upon application of the dansylamide to carbonic anhydrase immobilized at 1 μM concentration on peptides CA4, CA8, and CA11, confirming that the carbonic anhydrase was immobilized in an orientation that preserved the availability of the binding site (active site) and ability of the enzyme to consistently bind the inhibitor dansylamide, and confirming that the attachment peptides were able to immobilize carbonic anhydrase in the wells of an Epic plate in a manner such that binding of dansylamide to the carbonic anhydrase was readily detectable by the Epic technology.
For nearly all replicates, a shift on the order of 20 pm was observed upon application of the dansylamide.

beta-galactosidase = beta-galactosidase (Escherichia coli, UniProt P00722); conditions: 50 nM beta-galactosidase, 5 μM FDG, 0.5 hour preincubation; selected peptide at 2, 10, 50, 100 μM
Chain of beta-galactosidase (P00722 2-1024): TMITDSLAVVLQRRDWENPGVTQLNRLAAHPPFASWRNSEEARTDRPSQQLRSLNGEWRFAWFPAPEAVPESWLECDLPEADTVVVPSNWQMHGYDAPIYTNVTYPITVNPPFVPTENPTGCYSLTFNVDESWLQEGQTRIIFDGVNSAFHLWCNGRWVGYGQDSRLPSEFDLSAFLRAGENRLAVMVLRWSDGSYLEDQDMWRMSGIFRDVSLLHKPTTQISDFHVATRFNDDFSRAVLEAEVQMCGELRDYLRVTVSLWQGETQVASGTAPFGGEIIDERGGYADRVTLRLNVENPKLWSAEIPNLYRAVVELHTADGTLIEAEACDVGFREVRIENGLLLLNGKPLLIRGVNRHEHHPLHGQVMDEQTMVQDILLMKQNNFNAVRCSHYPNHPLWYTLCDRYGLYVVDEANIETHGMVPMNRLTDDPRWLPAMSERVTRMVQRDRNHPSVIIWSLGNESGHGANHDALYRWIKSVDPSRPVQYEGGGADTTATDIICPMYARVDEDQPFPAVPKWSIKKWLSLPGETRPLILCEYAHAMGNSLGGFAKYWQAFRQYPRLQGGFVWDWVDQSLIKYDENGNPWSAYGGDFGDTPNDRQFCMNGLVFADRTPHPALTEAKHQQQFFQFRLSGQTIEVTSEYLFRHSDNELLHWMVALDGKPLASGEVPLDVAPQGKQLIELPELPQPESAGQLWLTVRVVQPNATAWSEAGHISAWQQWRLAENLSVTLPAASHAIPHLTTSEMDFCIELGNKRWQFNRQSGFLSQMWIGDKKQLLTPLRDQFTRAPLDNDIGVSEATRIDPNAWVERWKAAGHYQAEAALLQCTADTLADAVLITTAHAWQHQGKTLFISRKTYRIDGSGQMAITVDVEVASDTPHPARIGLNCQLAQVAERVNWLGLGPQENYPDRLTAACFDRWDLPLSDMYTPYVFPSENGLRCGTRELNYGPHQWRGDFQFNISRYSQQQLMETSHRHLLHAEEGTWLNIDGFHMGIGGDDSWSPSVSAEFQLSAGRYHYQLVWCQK
Procedure: The enzyme activity of the entity beta-galactosidase when bound to the selected peptide having the sequence […] (SEQ ID NO. 2), was evaluated in solution phase by preincubating varying concentrations of the peptide with beta-galactosidase for 0.5 hour, then adding substrate FDG in solution and measuring 520 nm fluorescence upon 488 nm excitation at a series of time points.

[3] = system: T1, comparison attachment peptide (sequence ESVPTDLPMDTMEGKNWGSC (SEQ ID NO. 14))
T1 sequence: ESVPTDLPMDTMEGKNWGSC

[4] = system: T2, selected peptide having the sequence FRNFPVPVIFRYLNPWPGSC (SEQ ID NO. 2)
T2 sequence: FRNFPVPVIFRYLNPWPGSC

| Substance | wavelength shift on binding of carbonic anhydrase to peptide (carbonic anhydrase [1]) | further results |
| --- | --- | --- |
| CA4: 20-residue candidate attachment peptide for carbonic anhydrase, C-terminal glycine-serine-cysteine; sequence only in FIG. 6A (HWHHRWWHHWKHPHHWRGSC; CA4 (Carbonic Anhydrase Peptide 4)) | wavelength shifts which persisted even after 180 minutes incubation |  |
| CA8: 20-residue candidate attachment peptide for carbonic anhydrase, C-terminal glycine-serine-cysteine; sequence only in FIG. 6A (RHWKWHWWRRHHPHHWFGSC; CA8 (Carbonic Anhydrase Peptide 8)) | wavelength shifts which persisted even after 180 minutes incubation |  |
| CA9: 20-residue candidate attachment peptide for carbonic anhydrase, C-terminal glycine-serine-cysteine; sequence only in FIG. 6A (RVFKRYKRWLHVSRYYFGSC; CA9 (Carbonic Anhydrase Peptide 9)) | wavelength shifts which persisted even after 180 minutes incubation |  |
| CA11: 20-residue candidate attachment peptide for carbonic anhydrase, C-terminal glycine-serine-cysteine; sequence only in FIG. 6A (IEDTYLRFRHYGWYNNNGSC; CA11 (Carbonic Anhydrase Peptide 11)) | wavelength shifts which persisted even after 180 minutes incubation | wavelength shift upon application of dansylamide (time course) (carbonic anhydrase [2]): ~20 pm |
| CA12: 20-residue candidate attachment peptide for carbonic anhydrase, C-terminal glycine-serine-cysteine; sequence only in FIG. 6A (SIGIYGHAIARPGGWYFGSC; CA12 (Carbonic Anhydrase Peptide 12)) | wavelength shifts which persisted even after 180 minutes incubation |  |
| ESVPTDLPMDTMEGKNWGSC [SEQ ID NO. 14] |  | 520 nm fluorescence intensity (beta-galactosidase activity) relative to beta-galactosidase alone (beta-galactosidase): slightly higher than for beta-galactosidase alone |
| FRNFPVPVIFRYLNPWPGSC [SEQ ID NO. 2] |  | 520 nm fluorescence intensity (beta-galactosidase activity) relative to beta-galactosidase alone (beta-galactosidase): significantly lower than that for beta-galactosidase alone |
| beta-galactosidase |  | 520 nm fluorescence intensity (FDG hydrolysis by beta-galactosidase, solution phase) [3]: slightly higher than for beta-galactosidase alone; 520 nm fluorescence intensity (FDG hydrolysis by beta-galactosidase, solution phase; peptide at 2, 10, 50 and 100 µM) [4]: at all concentrations was significantly lower than that for beta-galactosidase alone |
